Series [1] addresses T1, 5-hydroxytryptamine receptor 1A (Homo sapiens, UniProt P08908).
T1 sequence (P08908 whole entry): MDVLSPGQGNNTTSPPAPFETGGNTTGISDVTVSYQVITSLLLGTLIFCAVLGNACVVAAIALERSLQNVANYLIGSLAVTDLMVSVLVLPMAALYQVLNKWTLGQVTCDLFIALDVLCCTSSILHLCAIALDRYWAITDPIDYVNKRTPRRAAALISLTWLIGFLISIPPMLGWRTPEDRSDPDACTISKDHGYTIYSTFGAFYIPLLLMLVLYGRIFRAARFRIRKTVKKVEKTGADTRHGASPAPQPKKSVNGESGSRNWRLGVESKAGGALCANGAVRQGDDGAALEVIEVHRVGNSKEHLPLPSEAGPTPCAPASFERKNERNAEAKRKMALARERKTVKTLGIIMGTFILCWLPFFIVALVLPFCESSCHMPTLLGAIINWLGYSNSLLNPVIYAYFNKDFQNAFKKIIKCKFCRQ
Description: In vitro binding affinity against 5-hydroxytryptamine 1A receptor using [3H]8-OH-DPAT in human CYP3A4 assay.

Another series deals with CYP3A4. The experiment in a line: CYP3A4 metabolism half-life (t1/2). As to conditions: human.

SMILES strings stand for the structures.

Usually IC50 stands for the concentration that inhibits the measured activity by half. Broadly, the half-life is the time needed for the level to fall by half in the phase considered. In series [1], `COc1ccccc1N1CCN(CCCCN2C(=O)CC3(CCCC3)CC2=O)CC1` came in with a half-maximal inhibitory concentration (IC50) of 2 nM. In the series with CYP3A4, the half-life was 5.1 min. `O=C1c2ccccc2C(=O)N1CCCCN1CCN(c2ncccn2)CC1` showed an IC50 in series [1] of 60 nM. Further, the half-life in the series on CYP3A4 came to 26.8 min.

In series [1], `O=C1CC2(CCCC2)CC(=O)N1CCCCN1CCN(c2ccccc2)CC1` had an IC50 of 15 nM. In the series with CYP3A4, the half-life was 8 min. For `CC(CCCN1C(=O)CC2(CCCC2)CC1=O)N1CCN(c2ncccn2)CC1` (stereo unspecified), in that order: 4 nM and 3.8 min. Molecule `O=C1CC2(CCCC2)CC(=O)N1CCC(O)CN1CCN(c2ncccn2)CC1` (stereo unspecified) registered an IC50 in series [1] of 840 nM. Besides, the half-life in the series on CYP3A4 stood at 10.2 min. In series [1], `O=C1CC2(CCCC2)CC(=O)N1CCC(O)CN1CCN(c2cnccn2)CC1` (stereo unspecified) returned an IC50 greater than 1000 nM. The same molecule returned a half-life with CYP3A4 of 9.6 min. In series [1], `COc1ccc(N2CCN(CCCCN3C(=O)CC4(CCCC4)CC3=O)CC2)cc1` had an IC50 of 930 nM. In addition, the half-life in the series with CYP3A4 is 21.1 min.

With `O=C1CC2(CCCC2)CC(=O)N1CCCCN1CCN(c2ncc(F)cn2)CC1`, the IC50 in series [1] worked out at 63 nM. Further, in the series with CYP3A4, the half-life worked out at 52.3 min. With `CC(C)(CCN1C(=O)CC2(CCCC2)CC1=O)CN1CCN(c2ncccn2)CC1`, the IC50 in series [1] is 710 nM. This molecule yielded a half-life in the series with CYP3A4 of 2.9 min. Molecule `O=C1CC2(CCCC2)CC(=O)N1CCCCN1CCN(c2cnccn2)CC1` returned a concentration for half-maximal inhibition (IC50) in series [1] of 460 nM. The molecule further displayed a half-life in the series with CYP3A4 of 5.5 min. As for `CC(CCCN1C(=O)CC2(CCCC2)CC1=O)N1CCN(c2ncc(F)cn2)CC1` (stereo unspecified), in series [1], the IC50 was found to be 46 nM. The molecule also came in with a half-life in the series on CYP3A4 of 14.8 min. As for `O=C1CC2(CCCC2)CC(=O)N1CCC(O)CN1CCN(c2ccc(F)cc2)CC1` (stereo unspecified), the IC50 in series [1] turned out to be 69 nM. In the series on CYP3A4, this molecule yielded a half-life of 3.8 min. As for `CC(CCCN1C(=O)CC2(CCCC2)CC1=O)N1CCN(c2ccc(F)cc2)CC1` (stereo unspecified), the half-inhibitory concentration (IC50) in series [1] amounted to 99 nM. In the series on CYP3A4, this molecule had a half-life of 2.4 min. On to `COc1ccccc1N1CCN(CC(O)CCN2C(=O)CC3(CCCC3)CC2=O)CC1` (stereo unspecified), for which the IC50 in series [1] worked out at 12 nM. In the series on CYP3A4, this molecule had a half-life of 7.8 min. In series [1], `O=C1c2ccccc2C(=O)N1CCCCN1CCN(c2ncc(F)cn2)CC1` came in with an IC50 of 440 nM. Moreover, the half-life in the series with CYP3A4 was determined as 20.4 min. For the molecule `O=C1CC2(CCCC2)CC(=O)N1CCCCN1CCN(c2ccc(F)cc2)CC1`, the IC50 in series [1] is 64 nM. This molecule also registered a half-life with CYP3A4 of 3.2 min. On to `CC(CCCN1C(=O)c2ccccc2C1=O)N1CCN(c2ncc(F)cn2)CC1` (stereo unspecified), for which the IC50 in series [1] was 210 nM. Moreover, the half-life in the series with CYP3A4 is 18.2 min.

With `CC1(C)CC(=O)N(CCCCN2CCN(c3ncc(F)cn3)CC2)C(=O)C1`, the IC50 in series [1] is 205 nM. Further, in the series on CYP3A4, the half-life was determined as 78.3 min.

`CC(CCCN1C(=O)CC(C)(C)CC1=O)N1CCN(c2ncc(F)cn2)CC1` (stereo unspecified) displayed an IC50 in series [1] of 87 nM. Also, the half-life with CYP3A4 was determined as 40.1 min.

With `CC(O)(CCN1C(=O)CC2(CCCC2)CC1=O)CN1CCN(c2ncccn2)CC1` (stereo unspecified), the IC50 in series [1] was 1460 nM. The molecule also came in with a half-life in the series on CYP3A4 of 8.6 min. In turn, `CC1(C)CC(=O)N(CCCCN2CCN(c3ncccn3)CC2)C(=O)C1` [GEPIRONE] displayed a half-life with CYP3A4 of 30.3 min.

(Values after ChEMBL document CHEMBL1148245 (Bioorg Med Chem Lett, 2004).)
